# Experimental data published in patent US10617736B2, “Method for modulating insulin-independent glucose transport using teneurin C-terminal associated peptide (TCAP)” (priority 2014, dated 2020).
# Read-outs that look alike come from different tables or passages of the source. Square brackets hold non-standard residues; d marks the D form. Ends that are not written are not given here. pGlu = O=C1CC[C@@H](C(=O)O)N1
# Experiments:
# [1] = tested on: mHypoE-38 neurons; experiment: 3H-2-deoxyglucose uptake in mHypoE-38 hypothalamic neurons; assay type: cell-based, mouse
# Procedure: The effect of TCAP-1 on glucose uptake in brain cells was examined in immortalized […] hypothalamic cells. Immortalized mHypoE-38 hypothalamic embryonic mouse neurons (gift from Dr. Denise Belsham, University of Toronto) were grown in Dulbecco's Modified Eagle Medium (DMEM) containing 4500 mg/L D-glucose, L-glutamine, and 25 mM HEPES buffer, without sodium pyruvate or phenol red (Gibco, Cat. No. 21063029), supplemented with 5% heat-inactivated fetal bovine serum (FBS), 100 U/ml penicillin and 100 μg/ml streptomycin. Cells were maintained at 60-70% confluency at 37° C. in a humidified CO2 incubator. To passage, cells were washed once in sterile PBS, trypsinized and seeded at a density of 100,000 cells per 3.5 cm plate and allowed to grow for 2-3 days. 24 hours prior to experimentation, medium was changed. mHypoE-38 hypothalamic cells were grown in 6-well tissue culture dishes (Corning Incorporated, Cat. No. 3516) at a seeding density of200 000 cells/9.5 cm^2 well in a 37° C. normoxic incubator. Cultures were grown for 36 hours to 85% confluence prior to experimentation. At day 3 post-plating, cells were washed twice with Locke's buffer (154 mM NaCl, 5.6 mM KCl, 2.3 mM CaCl2, 3.6 mM NaHCO3, 5 mM HEPES) without serum and glucose. The culture was incubated in the Locke's buffer for 1 hour at 37° C. followed by exposure to 100 nM insulin, 100 nM TCAP-1, 100 nM SC-TCAP-1, or saline. KCl (40 mM) and […] (0.5 μCi/ml) were added to culture 5 minutes before termination of treatment exposure. Uptake of ^3H-2-deoxyglucose was stopped immediately after 5 minutes with three washes of ice-cold 0.9% NaCl solution. Parallel experiments with 5 μM of cytochalasin B were performed to ensure that glucose uptake was of transporter-inhibitable transport. The cells were digested with 1 ml of 0.05 N NaOH at 0, 15, 30, 45, 60, 90 and 120 minutes after treatment. Cell lysates were used for determination of radioactivity by a beta liquid scintillation counter. Experiments were repeated three times with 3 wells pear condition per replication. […] hypothalamic cells were cultured as above and treated with 100 nM insulin, 100 nM TCAP-1 or saline, exposed to 5.6 mM or 40 mM KCl and 0.5 μCi/well 3H-2-deoxy glucose, and subsequently lysed with 50 mM NaOH. Radioactivity in cell lysates was counted using a liquid scintillation counter.
# [2] = tested on: C2C12 myocytes; experiment: 3H-2-deoxyglucose uptake in C2C12 myocytes; assay type: cell-based, mouse; conditions: 100 nM, over two hours (FIG. 20)
# Procedure: The effect of TCAP-1 on glucose uptake in muscle cells was examined in a C2C12 mouse myocyte cell line. C2C12 myocytes were cultured in Dulbecco's Modified Eagle Medium (DMEM) containing 4500 mg/L D-glucose, L-glutamine, and 25 mM HEPES buffer, without sodium pyruvate or phenol red (Gibco, Cat. No. 21063029), supplemented with 20% heat-inactivated fetal bovine serum (FBS), 100 U/ml penicillin and 100 μg/ml streptomycin. Cells were maintained at 80% confluency at 37° C. in a humidified CO2 incubator. To initiate differentiation, myocytes were further cultured in DMEM supplemented with 10% heat-inactivated horse serum (HS), transferrin, 100 U/ml penicillin and 100 μg/ml streptomycin. Myocytes were allowed to differentiate into multi-nucleated myotubes for 5 days before experimentation. 24 hours prior to experimentation, medium was changed. At day 5 of differentiation, cells were deprived of serum and incubated in Minimal Essential Medium containing 1000 mg/L D-glucose, L-glutamine, without nucleosides (Gibco, Cat. No. 12561049) for 5 hours at 37° C. prior to incubation with insulin, TCAP-1, or saline. Cells were washed twice in glucose-free HEPES-buffered solution (HBS), containing 140 mM NaCl, 20 mM HEPES, 5 mM KCl, 2.5 mM MgSO4 and 1 mM CaCl2, followed by determinations of transport of 3H-2-deoxyglucose for 10 minutes at 0.5 μCi/ml at room temperature. Uptake of 3H-2-deoxyglucose was stopped immediately after 10 minutes with three washes of ice-cold 0.9% NaCl solution. Parallel experiments with 5 μM of cytochalasin B were done to ensure that glucose uptake was of transporter-inhibitable transport The cells were digested with 1 ml of 0.05 N NaOH. Cell lysates were used for determination of radioactivity by a beta liquid scintillation counter. Experiments were repeated three times with 3 wells per condition per replication. […] Cell lysates were used for determination of radioactivity by a beta liquid scintillation counter. […]
# [3] = Uptake and clearance of TCAP-1 in plasma after IV or SC injection (TCAP ELISA); assay type: in vivo, rat; conditions: for half-life: rat, in vivo
# Procedure: Male Wistar rats weighing 400-450 g were obtained from Charles River Laboratories (Montreal, Canada). Rats were singly-housed in standard Plexiglas shoebox cages under standard laboratory conditions, (12 h light:dark cycle, lights on at 0700) with food and water available ad libitum. Testing took place between 0900 and 1200 hours. Rats were given one week to acclimatize to the laboratory before surgery. Rats were anesthetized with isoflurane (2-3% in 100% O2) and a catheter was implanted into the jugular vein.
# The K37 biotinylated TCAP was diluted into 200 ul physiological saline to contain 10.5 ug for 5 nM/kg dose and 52.5 ug for 25 nM/kg dose. The rats weighed 400-450 g. 200 ul of peptide containing solution was delivered through the cannula, different syringe containing saline was connected and 200 ul of saline was delivered to push the peptide into the bloodstream. The third syringe containing the heparin solution was used to fill the line with the lock, 150-200 ul. After 5 min, the lock solution was aspirated into the syringe, and also about 150 ul of the blood were aspirated and disposed off in case of the local contamination with high peptide concentrations. 200 ul of the blood was sampled in a fresh syringe, line flushed with saline first (200 ul) and heparin saline next (150-200 ul).
# (§1) Rats were gently restrained, cannula clamped and unplugged, 1 ml syringe with blunt needle attached to the end of the polyethylene 50 line and the lock solution containing heparin 50-100 U/ml was removed. The line was clamped and a new syringe with a blunt needle attached for withdrawing about 200 ul blood. The line was clamped and syringe removed to recover the blood. This blood sample was used to determine a baseline level of activity. All blood samples were incubated at a room temperature for 10-20 min and centrifuged at 3000 rpm for 5 min to recover the serum. The serum was frozen on dry ice and kept at −80° C. until the assay.
# as §1, with “K37 TCAP was biotin labeled according to the biotinylation method above. Rats” for “Rats”
# For IV administration, rats were gently restrained during the injection procedure. The IV cannula was unplugged and the lock solution (150-200 μl of 50-100 U/ml of heparin, Sigma Scientific) was removed. To obtain a baseline level of activity, 200 μl of blood was withdrawn prior to injection. 200 μl of TCAP-containing solution was delivered through the cannula, followed by 200 μl of saline to push the TCAP solution through the cannula. 150-200 μl of lock solution was injected to fill the catheter. For subcutaneous (SC) administration, rats were gently restrained and injected under the skin with 200 μl of TCAP-1-containing solution with a 23 gauge needle
# Blood samples were obtained from the jugular catheter. Rats were gently restrained, and the IV cannula was unplugged. The lock solution was aspirated along with 150 μl of blood. This mixture was discarded in case of local contamination with high peptide concentrations. A sample of200 μl of blood was obtained in a fresh syringe. The catheter was then flushed with 200 μl of saline and then filled with 150-200 μl of lock solution. Lateral tail vein blood samples were obtained from lightly restrained rats whereby 200 μl of blood was obtained using a 23-gauge needle. A final bleed was achieved via cardiac puncture. […]
# [4] = tested on: male Wistar rats; experiment: Haematology assays in normal Wistar rats; assay type: in vivo, rat
# Procedure: (§2) Whole blood samples were collected into plastic microcentrifuge tubes with EDTA-coated capillary tubes. A minimum sample volume of 20 μL was required for the analyses by the Toronto Centre for Phenogenomics (Mount Sinai Hospital, Toronto) using the Hemavet 950Fs Hematology Analyzer. From the whole blood samples, serum was separated from the cells and fibrin by centrifuging the collection tubes for five minutes at 7000 g at 25° C. Afterwards, immediately following collection of serum, the samples were stored and maintained at a freezing temperature of −80° C.
# (§3) Haematology assays were performed on physiological normal rat serum and from Type II Diabetic GK rats obtained at the end of the in vivo studies noted herein in which TCAP-1 was administered to the normal rats and plasma glucose levels were monitored over the course of 1-2 weeks. […] Results are illustrated in FIGS. 6A to 6L.
# [5] = tested on: male GK Wistar rats; experiment: Haematology assays in Goto-Kakizaki rats; assay type: in vivo, rat
# Procedure: as §2, §3
substance,measurement,setting,value
"pETHSLELRVSLIGEVQQFIGYENQSDQNYGLLAYFDRVGMS-NH2 ([pGlu]THSLELRVSLIGEVQQFIGYENQSDQNYGLLAYFDRVGMS-NH2) [scTCAP-1, scrambled TCAP control with same amino acid composition but different order, pyroglutamic acid in first position]",3H-2-deoxyglucose uptake value relative to baseline,"[1]; 100 nM, 40 mM KCl, 60 minutes",61.523±7.545%
same,3H-2-deoxyglucose uptake relative to baseline,"[1]; 100 nM, 40 mM KCl, 90 minutes",68.020±4.812%
same,3HDG uptake in whole cells over time,[1]; Hypo-E38 cells (FIG. 11C-E),no significant glucose uptake
same,3H-2-deoxyglucose uptake signal,[2],lack of positive signal
QQLLGTGRVQGYDGYFVLSVEQYLELSDSANNIHFMRQSEI-NH2 (C-terminus assumed) [TCAP-1],time of peak in plasma,"[3]; IV administered, rat plasma",≤ 1 min
same,time until cleared from plasma,[3]; IV-treated animals,about 100 min
same,time to 50% loss from plasma,"[3]; SC administered, rat plasma",about 90 min
same,time until cleared from plasma,"[3]; SC treated animals, highest dose of 125 ng/kg",about 170 min
same,half-life,"[3]; iv, highest dose, read-out: plasma clearance half-life",16 ± 4 min
same,half-life,"[3]; iv, lowest dose, read-out: plasma clearance half-life",4 ± 1 min
same,half-life,"[3]; iv, mid dose, read-out: plasma clearance half-life",7 ± 2 min
same,half-life,"[3]; sc, highest dose, read-out: clearance time (plasma clearance half-life)",36 ± 20 min
same,half-life,"[3]; sc, lowest dose, read-out: clearance time (plasma clearance half-life)",40 ± 4 min
same,half-life,"[3]; sc, mid dose, read-out: clearance time (plasma clearance half-life)",50 ± 11 min
same,haemoglobin concentrations,"[4]; Wistar rats, 1 or 10 nmole/kg (FIG. 6A)",No significant results were observed
same,hematocrit counts,"[4]; Wistar rats, 1 or 10 nmole/kg (FIG. 6B)",No significant results were observed
same,platelet counts,"[4]; Wistar rats, 1 or 10 nmole/kg (FIG. 6C)",No significant results were observed
same,red blood cell counts,"[4]; Wistar rats, 1 or 10 nmole/kg (FIG. 6D)",No significant results were observed
same,"levels of white blood cells, neutrophils or lymphocytes","[4]; Wistar rats, 1 or 10 nmole/kg (FIG. 6E)",No significant results were observed
same,"monocytes, basophils or eosinophils","[4]; Wistar rats, 1 or 10 nmole/kg (FIG. 6F)",No significant results were observed
same,clot formation in blood samples,[4]; observation on collected blood samples,clots formed more frequently in the blood samples of TCAP-1 treated rats
same,haemoglobin concentrations,[5]; 10 nmole/kg (FIG. 6G),No significant results were observed
same,hematocrit counts,[5]; 10 nmole/kg (FIG. 6H),No significant results were observed
same,platelet counts,[5]; 10 nmole/kg (FIG. 6I),No significant results were observed
same,red blood cell counts,[5]; 10 nmole/kg (FIG. 6J),No significant results were observed
same,"levels of white blood cells, neutrophils or lymphocytes",[5]; 10 nmole/kg (FIG. 6K),No significant results were observed
same,"monocytes, basophils or eosinophils",[5]; 10 nmole/kg (FIG. 6L),No significant results were observed
same,"white blood cells, neutrophils and lymphocytes, trend",[5]; results called variable and inconclusive,"appears to be a decrease in white blood cells, neutrophils and lymphocytes"
